Measured values taken from patent US9078874B2, “Composition and method for treating cognitive impairments in down syndrom subjects” (Centre National De La Recherche Scientifique—CNRS, priority 2009, dated 2015).

Legend:
mouse hippocampal slice = conditions: cited from earlier work
euploid and Ts65Dn mice [1] = experiment: Pro-convulsant effects after pentylenetetrazol (45 mg/kg); assay type: in vivo; conditions: mouse, in vivo, 50 min
Experimental: For testing the pro-convulsant effects of α5IA, a sub-convulsant dose of pentylenetetrazole (45 mg/kg i.p.) that induces myoclonic convulsions in about 50% of mice was injected i.p. 20 min after injection of α5IA (50 mg/kg) or placebo.
The proconvulsant action of the α5IA was measured after injection of a subconvulsive dose of pentylenetetrazole. Mice were injected with either vehicle or the α5IA (50 mg/kg i.p) and 20 min later they received an intraperitoneal injection of 45 mg/kg of pentylenetetrazole. […] Six to 7 mice were used for each condition. The latency to the first myoclonic jerk episode and the convulsion grade were recorded during a 1200-s period of observation. Four grades were empirically determined: Grade 0: no effect; grade 1: tail up and curved; grade 2: reversed tail and convulsive shivers; grade 3: myoclonic convulsions.
We then tested the proconvulsant effect of α5IA by injecting it (50 mg/kg) 20 min before a sub-convulsant dose of pentylenetetrazol (45 mg/kg) that induces myoclonic convulsions in about 50% of mice.

euploid and Ts65Dn mice [2] = experiment: Morris water maze (MWM) spatial reference memory; assay type: in vivo
Experimental: Spatial reference memory was evaluated using the standard Morris water maze task. The maze was similar to the one described above (dose-response effects of α5IA). The platform was submerged 1 cm below water surface in the center of one of the pool quadrants. During spatial allocentric training the non-visible platform remained at a constant position throughout the trials with numerous external visual indices available to facilitate formation of spatial cognitive maps.
A total of 32 mice (16 euploid and 16 Ts65Dn mice) were used. Animals were randomly and equally distributed into 4 groups. Each day mice were injected with placebo or α5IA (5 mg/kg) 30 min before the onset of behavioral testing.
On the first day, mice were submitted to a single habituation trial with the non-visible platform available. On the following six days, spatial allocentric training consisted in daily sessions (2 trials per session). Start positions varied pseudo-randomly among the four cardinal points. Mean inter-trial interval was 2 hours. During the habituation and spatial training phases each trial ended when the animal reached the platform. A 90 sec cut-off was used, after which mice were manually guided to the platform. Once on the platform, animals were given a 20 sec rest before being replaced in their cage. Twenty-four hours after the last training session, a probe trial was performed (Day 8) during which the platform was removed and mice allowed to freely navigate for 60 sec.
Following evaluation of spatial learning and memory skills, visual ability of mice was controlled using a non-spatial training procedure. Platform location was directly cued by a white styrene ball placed 12 cm above water surface and access to external indices was prevented by a black curtain surrounding the pool. Testing in this visually guided navigation task consisted of 4 daily sessions for 4 consecutive days as described above.
All data were collected, analyzed and stored using a video-tracking system (Ethovision, Noldus, Wageningen, The Netherlands).
During probe trial one supplementary (euploid) mouse was removed from analysis for the same reason.

rats = conditions: 240 mg/kg for 5 weeks; cited from earlier work
[3] = Ts65Dn mice, 5 mg/kg i.p. 30 min before each session

## Cc1cc(-c2nnc3c4ccccc4c(OCc4cn(C)nn4)nn23)no1 [α5IA, 3-(5-methylisoxazol-3-yl)-6-[(1-methyl-1,2,3-triazol-4-yl)methyloxy]-1,2,4-triazolo[3,4-a]phthalazine]
Mouse hippocampal slice
  long-term potentiation: enhance long-term potentiation
Euploid and Ts65Dn mice [1]; Ts65Dn
  Convulsant mice rate: 4/7
Euploid and Ts65Dn mice [1]; euploid
  Convulsant mice rate: 3/6
Euploid and Ts65Dn mice [2]; [3]
  hits (reaching the platform before 90 sec): reversed after treatment
  learning index: corrected by treatment
Euploid and Ts65Dn mice [2]; control euploid mice, 5 mg/kg
  learning performance in the MWM: did not observe a significant promnesiant effect
Euploid and Ts65Dn mice [2]; euploid mice (p=0.06), 5 mg/kg
  thigmotaxy, significance of the effect: just failed to reach statistical significance
Euploid and Ts65Dn mice [2]; euploid or Ts65Dn mice, 5 mg/kg
  retention performance during the probe test (24 hours): did not significantly increase retention performance
Euploid and Ts65Dn mice [2]; p>0.16, 5 mg/kg
  performance in the cued (visible platform) version of the MWM: did not find any effect
Euploid and Ts65Dn mice [2]; particularly in Ts65Dn mice (p<0.001), 5 mg/kg
  thigmotaxy (wall-seeking behavior): strongly decreased
rats
  renal toxicity: renal pyelitis and papillitis associated with crystals formation
